The values below come from patent publication US6008188A, “Cytokine potentiator and pharmaceutical formulation for cytokine administration” (Kanebo Limited, priority 1994, dated 1999).

Like-named read-outs stand apart in the source and are kept apart here.

Data set [1] relates to Normal human fibroblasts [Detroit-551 (ATCC CCL 110)]. Description: Response to βFGF: procollagenase production by normal human fibroblasts Detroit-551 (Test Examples 4-10). The class given is cell-based. Particulars: for activity at 3000 µM / activity at 1000 µM: Homo sapiens, Detroit 551, 96 h, read-out: Response to βFGF Increment; for Procollagenase Production: mean ± SD, n = 3. On the procedure:
(§1) In the following tests, the procollagenase production was quantified in terms of the collagenase activity as obtained through activation with trypsin.
(§2) It is known that βFGF promotes procollagenase production. In the following tests, therefore, the βFGF activity increment as attained by the compound added was calculated from the procollagenase production, relative to the control using purified water in place of the test compound.
Normal human fibroblasts [Detroit-551 (ATCC CCL 110) as prepared from the skin of a person] were suspended at a cell density of 1×10^5 cells/ml in the MEM medium, comprising 10% (V/V) FBS, 0.1% (W/V) (as final concentration) of enzymatic hydrolysate of lactalbumin (produced by Sigma Co.), 1% (V/V) non-essential amino acids and 1 mM sodium pyruvate (both produced by Dai-Nippon Pharmaceutical Co.). The suspended cells were seeded into each well of a 12-well plate in an amount of 0.8 ml/well (corresponding to 8×10^4 cells/well) and incubated in a saturated aqueous vapor with 5% CO2 at 37uC.
A cytokine activity enhancer (ethanolamine) as obtained in Example 3 mentioned below was diluted with an MEM medium containing 0.6% (V/V) FBS, 0.1% (W/V) (as final concentration) of enzymatic hydrolysate of lactalbumin, 1% (V/V) non-essential amino acids and 1 mM sodium pyruvate, to be 1 mM, and this was used as a solution to be added to the incubated cells.
After having been incubated for 24 hours, the culture medium was removed from the plate by suction, and the cells remained were washed twice with the MEM medium containing 0.6% (V/V) (as final concentration) of FBS. Then, the cells were fed with 0.8 ml of the solution prepared above, and were incubated for 4 days.
After the 4 days incubation, the culture medium was removed from the plate by suction, and the cells were fed with 0.8 ml of the MEM medium containing 3 ng/ml βFGF, 0.6% (V/V) FBS, 0.1% (W/V) (as final concentration) of enzymatic hydrolysate of lactalbumin, 1% (V/V) non-essential amino acids and 1 mM sodium pyruvate, and were incubated for 3 days to obtain a culture supernatant.
Next, in the same manner as in Test Example 1, procollagenase was recovered from the CM-Sepharose CL-6B (trade name), and the amount of procollagenase thus collected was measured.
A cytokine activity enhancer (N-methylethanolamine) as obtained in Example 4 to be mentioned hereinunder was tested for the βFGF activity increment, in the same manner as in Test Example 4.
Normal human fibroblasts [Detroit-551 (ATCC CCL 110) as collected from the skin of a person] were suspended at a cell density of 1×10^5 cells/ml in the MEM medium (hereinafter referred to as MEM2 medium), comprising 10% (V/V) FBS, 1% (V/V) (as final concentration) of non-essential amino acids and 1 mM sodium pyruvate (both produced by Dai-Nippon Pharmaceutical Co.). The cells were seeded into each well of a 12-well plate in an amount of 0.8 ml/well (corresponding to 8×10^4 cells/well) and incubated in a saturated aqueous vapor with 5% CO2 at 37° C.
A cytokine activity enhancer (Diisopropanolamine) as obtained in Example 5 mentioned below was diluted with the MEM2 medium containing 0.6% (V/V) FBS to be 3 mM, and this was used as a solution to be added to the incubated cells.
After having been incubated for 24 hours, the culture medium was removed from the plate by suction, and the cells remained were washed twice with the MEM2 medium containing 0.6% (V/V) (as final concentration) of FBS. Then, the cells were fed with 0.8 ml of the solution prepared above and were incubated for 2 days.
After the 2 days incubation, the culture was removed by filtration under suction, and 0.8 ml of the solution was again added to the remaining cells, which were then incubated for 2 days. Thus, the cells were incubated for 4 days in total. […]

The next data set deals with IFN. Particulars: cited from earlier work.
Data set [2] relates to Normal human fibroblasts [CCD45SK (ATCC CRL 1506)]. Description: Response to βFGF: procollagenase production by normal human fibroblasts CCD45SK (Test Examples 1-3). Particulars: Test Example 3, 1 mM, 10 ng/ml βFGF. The class given is cell-based. The procedure:
as §1, §2
Normal human fibroblasts [CCD45SK (ATCC CRL 1506) as prepared from the skin of a person] were suspended at a cell density of 1×10^5 cells/ml in the MEM medium, comprising 10% (V/V) FBS and 1% (V/V) non-essential amino acids (produced by Dai-Nippon Pharmaceutical Co.). The suspended cells were seeded into each well of a 12-well plate in an amount of 0.8 ml/well (corresponding to 8×10^4 cells/well) and incubated in a saturated aqueous vapor with 5% CO2 at 37° C. […]
After having been incubated for 24 hours, the culture medium was removed from the plate by suction, and the cells remained were washed twice with an MEM medium containing 0.6% (v/v) (as final concentration) of FBS. Then, the cells were fed with 0.8 ml of the solution prepared above added to the cells, which were incubated for 2 days.
After the 2 days incubation, the culture medium was removed from the plate by suction, and the cells were fed with 0.8 ml of the solution and were further incubated for 2 days. This operation was repeated once again. Thus, the cells were processed in the medium containing the cytokine activity enhancer for 6 days in total.
After the above-mentioned process, the culture medium was removed from the plate by suction, and the cells were fed with 0.8 ml of an MEM medium containing 3 ng/ml of βFGF (produced by Boehringer Manheim Co.) and 0.6% (V/V) FBS, and were incubated for 3 days to obtain a culture supernatant.
3.5 ml of 10 mM Tris-HCl buffer [adjusted at pH 7.8 at 4° C., containing 1 mM calcium chloride and 0.05% (W/V) Brij-35] was added to 500 μl of the thus-obtained culture supernatant, and applied to CM-Sepharose CL-6B (trade name, produced by Pharmacia Co., having a bed volume of 0.5 ml) as previously equilibrated with the same buffer.
Next, the inhibitor was removed through treatment with 0.5 ml of the same buffer as above but containing 125 mM sodium chloride (4 times in all, 2 ml of the buffer was used in total), and the procollagenase was recovered through treatment with 0.5 ml of the same buffer as above but containing 500 mM sodium chloride (4 times in all, 2 ml of the buffer was used in total). This was used as a test sample.
The test sample was suitably diluted with a buffer for measurement (mentioned above), 25 μl of the thus-diluted sample was mixed with 25 μl of the buffer, 20 μl of a trypsin solution (as prepared by adding trypsin, Type 12 (produced by Sigma Co.) to the buffer at a concentration of 1 mg/ml) was added thereto, and this was incubated at 35° C. for 5 minutes. Then, 30 μl of a soybean trypsin inhibitor solution (as prepared at a concentration of 3 mg/ml, using the buffer) was added to this to thereby inactivate the trypsin. The resulting solution is designated collagenase solution.
Using type I collagen as labeled with fluorescein isothiocyanate (hereinafter referred to as FITC) (this is an acetic acid solution of FITC-collagen having a concentration of 1 mg/ml; produced by Cosmo-Bio Co.), as a substrate solution, the collagenase activity (unit/ml) of the solution was measured according to the method of Nagai et al. (see Inflammations, Vol. 4, No. 2, p. 123, 1984). […] The procollagenase production (unit/ml of culture medium) was thus obtained and referred to as X1.

Data set [3] deals with Japanese native, male house rabbits. On the procedure:
Aqueous solutions of N-Methyl-L-Serine, Ethanolamine and N-Methylethanolamine that had been adjusted to have a pH of 7 with hydrochloric acid were used as test samples.
Using Japanese native, male house rabbits (body weight: about 3 kg), the test samples were tested according to the Draize method (see Appraisal of the Safety of Chemicals in Foods, Drugs and Cosmetics, p. 46, 1959, edited and published by the Deitorial Committee, Association of Food and Drug Officials of U.S.A.).
24 hours after the last application, the tested area of each rabbit was checked to score the erythema, edema, scab and rhagades, if any, formed in the area.
The erythema score, the edema score, the scab score, and the rhagades score as referred to in Table 17 were summed up to obtain the cumulative stimulation score.
Next, from the cumulative stimulation scores, obtained were the degrees of stimulation with N-Methyl-L-Serine, Ethanolamine and N-Methylethanolamine,according to the criteria shown in Table 18 below.

The next data set relates to healthy panelists. On the procedure: Aqueous solutions of N-methyl-L-serine, ethanolamine and N-methylethanolamine that had been adjusted to have a pH 7 with hydrochloric acid were used as test samples. These test samples were applied to 19 healthy panelists.
One hour and 24 hours after the removal of the patch, the condition of the skin of each panelist was observed.

The subject of data set [4] is Japanese native, male house rabbits. The procedure: Aqueous solutions of N-methyl-L-serine, ethanolamine and N-methylethanolamine that had been adjusted to have a pH 7 with hydrochloric acid were used as test samples.
Using Japanese native, male house rabbits (body weight: about 3 kg), the test samples were tested according to the above-mentioned the Draize method.
Precisely, the back of each rabbit was shaven and rubbed to form a scratched site (scratched skin). An adhesive tape for patch test (1.2×1.6 cm; Ribbon Aid, registered trade mane, produced by River Tape Chemicals Co.) as wetted with 0.1 ml of water, or 0.1 ml of an aqueous 1% (W/V) solution of the test compound was stuck onto the scratched skin and the normal skin. […] In addition, 48 hours after the peeling of the tape, the condition of the skin was also observed.
The scores as referred to in Table 21 were obtained, and the primary stimulation score was calculated according to the following equation.
Primary Stimulation Score=[(A+B)/2]+[(C+D)/2]+[(E+F)/2]+[(G+H)/2]
Next, from the primary stimulation scores, obtained was the degree of stimulation with N-Methyl-L-Serine or Ethanolamine or N-Methylethanolamineaccording to the criteria shown in Table 22 below.
The source holds these as a separate data set.

The test system of data set [5] is Normal human fibroblasts [CCD45SK (ATCC CRL 1506)]. The data set is described as follows: Response to TGF-β1: TIMP production by normal human fibroblasts (Test Examples 12-13). Type of data set: cell-based. On the procedure: Normal human fibroblasts [CCD45SK (ATCC CRL 1506) as prepared from the skin of a person] were suspended at a cell density of 1×10^5 cells/ml in the MEM medium, comprising 10% (V/V) FBS and 1% (V/V) non-essential amino acids (produced by Dai-Nippon Pharmaceutical Co.). The suspended cells were seeded into each well of a 12-well plate in an amount of 0.8 ml/well (corresponding to 8×10^4 cells/well) and incubated in a saturated aqueous vapor with 5% CO2 at 37° C.

Where [6] appears, read: Test Examples 6-10, 3 mM, 4 days, 3 ng/ml βFGF, MEM2 medium, control = 100.
[7] abbreviates: Test Examples 6-10, 3 mM, 4 days, 3 ng/ml βFGF, MEM2 medium.
Where [8] appears, read: Test Examples 4-5, 1 mM, 4 days, 3 ng/ml βFGF.

With `CCC(O)CN` (stereo not shown) [Example 9, 1-Amino-2-Butanol], the activity at 3000 µM in data set [1] (setting [6]) turned out to be 290%. Moreover, the “Procollagenase Production” value in data set [1] (setting [7]) is reported as 24 ± 2.3 unit/ml.

On to `CC1(C)[C@@H](O[C@H]2O[C@H](C(=O)O)[C@@H](O)[C@H](O)[C@H]2O[C@@H]2O[C@H](C(=O)O)[C@@H](O)[C@H](O)[C@H]2O)CC[C@]2(C)[C@H]3C(=O)C=C4[C@@H]5C[C@@](C)(C(=O)O)CC[C@]5(C)CC[C@@]4(C)[C@]3(C)CC[C@@H]12` [Glychrrhizic acid, glycyrrhizic acid], for which the IFN-producing activity result in the data set on IFN is reported as “has an IFN-producing activity”.

For `OCCNCCO` [Example 2, diethanolamine], the activity at 1000 µM in data set [2] (Homo sapiens, Fibroblast, control = 100, read-out: Response to βFGF Increment) came out at 190%. Besides, in data set [2] (mean ± SD, n = 3), the “Procollagenase Production” value worked out at 14 ± 1.3 unit/ml.

As for `CC(O)CNCC(C)O` (stereo not shown) [Example 5, Diisopropanolamine], the activity at 3000 µM in data set [1] (setting [6]) came out at 760%. For the same compound, the “Procollagenase Production” value in data set [1] (setting [7]) is on record as 65 ± 13 unit/ml.

On to `CCC(N)CO` (stereo not shown) [Example 7, 2-Amino-1-Butanol], for which the activity at 3000 µM in data set [1] (setting [6]) worked out at 190%. Besides, the “Procollagenase Production” value in data set [1] (setting [7]) is given as 22 ± 2.4 unit/ml.

For `NCCO` [Example 3, ethanolamine], the “Cumulative Stimulation Score” value in data set [3] (0.1 ml of aqueous 0.1% (W/V) solution, once a day for 4 days) was 0. The “cumulative stimulation to the skin (in words)” value in data set [3] (aqueous 0.1% (W/V) solution) is “low”. In addition, the panelists with erythema result in the data set with healthy panelists (0.05 ml of aqueous 1% (W/V) solution, 24 hours closed patch, 1 hour and 24 hours after removal, 19 panelists) was “only one panelists had minor erythema”. Besides, the “Primary Stimulation Score” value in data set [4] (0.1 ml of aqueous 1% (W/V) solution, patch 24 hours, normal and scratched skin) came to 0. Moreover, the “stimulation to the skin (in words)” value in data set [4] (aqueous 1% (W/V) solution) was “low”. In addition, the activity at 1000 µM in data set [1] is 180%; in data set [5] (Homo sapiens, Fibroblast, 144 h, read-out: Response to TGF-β1 Increment), 160%. For the same compound, the “Procollagenase Production” value in data set [1] (setting [8]) was 21 ± 1.3 unit/ml. In addition, the “TIMP Production” value in data set [5] (Test Example 13, 1 mM, 4 days, supernatant 6 days after TGF-β1, mean ± SD, n = 3) was determined as 250 ± 9.0 unit/ml.

As for `CC(N)CO` (racemic) [Example 6, D,L-2-Amino-1-Propanol], in data set [1] (setting [6]), the activity at 3000 µM was determined as 380%. In addition, the “Procollagenase Production” value in data set [1] (setting [7]) came to 33 ± 4.7 unit/ml.

On to `NCC(O)CN` [Example 8, 1,3-Diamino-2-Propanol], for which the activity at 3000 µM in data set [1] (setting [6]) amounted to 150%. Besides, the “Procollagenase Production” value in data set [1] (setting [7]) worked out at 18 ± 0.95 unit/ml.

Take `CNCCO` [Example 4, N-methylethanolamine]: the “cumulative stimulation to the skin (in words)” value in data set [3] (rabbit, in vivo) is “low”. In addition, in the data set on healthy panelists (in vivo), the panelists with erythema result is “only one panelists had minor erythema”. Moreover, in data set [4] (rabbit, in vivo), the “Primary Stimulation Score” value was found to be 0.25 and the “stimulation to the skin (in words)” value is given as “low”. The activity at 1000 µM in data set [1] (Test Examples 4-5, 1 mM, 4 days, 3 ng/ml βFGF, control = 100) stood at 180%. Further, the “Procollagenase Production” value in data set [1] (setting [8]) was 12 ± 1.7 unit/ml.
